Experimental data: PubChem BioAssay (NCI)
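48-hour exposure; five concentrations; linearly interpolated endpoints. TGI denotes the concentration required for complete inhibition of growth.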

Assays:
Assay in all cases: growth of human tumour cells (NCI), 48 h
786-0 renal = system: 786-0 renal
A498 renal = system: A498 renal
A549 NSCLC = system: A549 NSCLC
ACHN renal = system: ACHN renal
BT-549 breast = system: BT-549 breast
CAKI-1 renal = system: CAKI-1 renal
COLO 205 colon = system: COLO 205 colon
DU-145 prostate = system: DU-145 prostate
EKVX NSCLC = system: EKVX NSCLC
HCC-2998 colon = system: HCC-2998 colon
HCT-116 colon = system: HCT-116 colon
HCT-15 colon = system: HCT-15 colon
HL-60(TB) leukemia = system: HL-60(TB) leukemia
HOP-62 NSCLC = system: HOP-62 NSCLC
HOP-92 NSCLC = system: HOP-92 NSCLC
HS 578T breast = system: HS 578T breast
HT29 colon = system: HT29 colon
IGROV1 ovarian = system: IGROV1 ovarian
KM12 colon = system: KM12 colon
LOX IMVI melanoma = system: LOX IMVI melanoma
M14 melanoma = system: M14 melanoma
MCF7 breast = system: MCF7 breast
MDA-MB-231 breast = system: MDA-MB-231 breast
MDA-MB-435 = system: MDA-MB-435
MDA-N = system: MDA-N
MOLT-4 leukemia = system: MOLT-4 leukemia
NCI-H226 lung = system: NCI-H226 lung
NCI-H23 lung = system: NCI-H23 lung
NCI-H460 lung = system: NCI-H460 lung
NCI-H522 lung = system: NCI-H522 lung
NCI/ADR-RES ovarian = system: NCI/ADR-RES ovarian
OVCAR-3 ovarian = system: OVCAR-3 ovarian
OVCAR-4 ovarian = system: OVCAR-4 ovarian
OVCAR-5 ovarian = system: OVCAR-5 ovarian
PC-3 prostate = system: PC-3 prostate
RPMI-8226 leukemia = system: RPMI-8226 leukemia
RXF 393 renal = system: RXF 393 renal
SF-268 CNS = system: SF-268 CNS
SF-295 CNS = system: SF-295 CNS
SF-539 CNS = system: SF-539 CNS
SK-MEL-2 melanoma = system: SK-MEL-2 melanoma
SK-MEL-28 melanoma = system: SK-MEL-28 melanoma
SK-MEL-5 melanoma = system: SK-MEL-5 melanoma
SK-OV-3 ovarian = system: SK-OV-3 ovarian
SN12C renal = system: SN12C renal
SNB-19 CNS = system: SNB-19 CNS
SNB-75 CNS = system: SNB-75 CNS
SR leukemia = system: SR leukemia
SW-620 colon = system: SW-620 colon
TK-10 renal = system: TK-10 renal
U251 CNS = system: U251 CNS
UACC-257 melanoma = system: UACC-257 melanoma
UACC-62 melanoma = system: UACC-62 melanoma
UO-31 renal = system: UO-31 renal
CCRF-CEM leukemia = system: CCRF-CEM leukemia
K-562 leukemia = system: K-562 leukemia
OVCAR-8 ovarian = system: OVCAR-8 ovarian

CN(C)c1ccc(/C=C/c2cc(-c3ccccc3)[n+](C)n2-c2ccccc2)cc1
TGI (786-0 renal): 23 µM
TGI (A498 renal): 14.5 µM
TGI (A549 NSCLC): 23.2 µM
TGI (ACHN renal): 16 µM
TGI (BT-549 breast): 0.613 µM
TGI (CAKI-1 renal): 13 µM
TGI (COLO 205 colon): 0.42 µM
TGI (DU-145 prostate): 22.7 µM
TGI (EKVX NSCLC): 10.8 µM
TGI (HCC-2998 colon): 56.4 µM
TGI (HCT-116 colon): 14.1 µM
TGI (HCT-15 colon): 14.5 µM
TGI (HL-60(TB) leukemia): 0.128 µM
TGI (HOP-62 NSCLC): 12.4 µM
TGI (HOP-92 NSCLC): 16.6 µM
TGI (HS 578T breast): 0.248 µM
TGI (HT29 colon): > 100 µM
TGI (IGROV1 ovarian): 3.76 µM
TGI (KM12 colon): 3.07 µM
TGI (LOX IMVI melanoma): 14.2 µM
TGI (M14 melanoma): > 34.7 µM
TGI (MCF7 breast): > 33.3 µM
TGI (MDA-MB-231 breast): 17.2 µM
TGI (MDA-MB-435): 2.98 µM
TGI (MDA-N): 13.6 µM
TGI (MOLT-4 leukemia): 3.41 µM
TGI (NCI-H226 lung): 71 µM
TGI (NCI-H23 lung): 0.92 µM
TGI (NCI-H460 lung): > 100 µM
TGI (NCI-H522 lung): 0.318 µM
TGI (NCI/ADR-RES ovarian): > 100 µM
TGI (OVCAR-3 ovarian): 17.2 µM
TGI (OVCAR-4 ovarian): > 69.2 µM
TGI (OVCAR-5 ovarian): 30.8 µM
TGI (PC-3 prostate): 3.27 µM
TGI (RPMI-8226 leukemia): > 100 µM
TGI (RXF 393 renal): 4.18 µM
TGI (SF-268 CNS): 4.77 µM
TGI (SF-295 CNS): 16.2 µM
TGI (SF-539 CNS): 29 µM
TGI (SK-MEL-2 melanoma): 0.953 µM
TGI (SK-MEL-28 melanoma): > 34.6 µM
TGI (SK-MEL-5 melanoma): 0.522 µM
TGI (SK-OV-3 ovarian): 4.33 µM
TGI (SN12C renal): 7.6 µM
TGI (SNB-19 CNS): 11.3 µM
TGI (SNB-75 CNS): 2.37 µM
TGI (SR leukemia): > 30 µM
TGI (SW-620 colon): > 35.1 µM
TGI (TK-10 renal): 30.5 µM
TGI (U251 CNS): > 33.8 µM
TGI (UACC-257 melanoma): 26.8 µM
TGI (UACC-62 melanoma): > 39.7 µM
TGI (UO-31 renal): 6.66 µM

COc1ccc(/C(=N\Nc2ccccn2)c2ccccn2)cc1
TGI (786-0 renal): 24.5 µM
TGI (A498 renal): > 100 µM
TGI (A549 NSCLC): 11.1 µM
TGI (ACHN renal): 2.81 µM
TGI (BT-549 breast): > 100 µM
TGI (CAKI-1 renal): 22.6 µM
TGI (CCRF-CEM leukemia): > 100 µM
TGI (COLO 205 colon): 12.1 µM
TGI (DU-145 prostate): > 100 µM
TGI (EKVX NSCLC): 13.6 µM
TGI (HCC-2998 colon): 35.9 µM
TGI (HCT-116 colon): 17.4 µM
TGI (HCT-15 colon): 12.5 µM
TGI (HL-60(TB) leukemia): 18.4 µM
TGI (HOP-62 NSCLC): 10.4 µM
TGI (HOP-92 NSCLC): > 24.3 µM
TGI (HS 578T breast): 18.4 µM
TGI (HT29 colon): 14 µM
TGI (IGROV1 ovarian): 7.89 µM
TGI (K-562 leukemia): > 100 µM
TGI (KM12 colon): > 32.3 µM
TGI (M14 melanoma): 3.76 µM
TGI (MCF7 breast): 49.7 µM
TGI (MDA-MB-231 breast): > 74.9 µM
TGI (MDA-MB-435): 22.3 µM
TGI (MDA-N): > 100 µM
TGI (MOLT-4 leukemia): > 58.3 µM
TGI (NCI-H23 lung): 9.55 µM
TGI (NCI-H460 lung): 3.08 µM
TGI (NCI-H522 lung): 14.8 µM
TGI (NCI/ADR-RES ovarian): 0.0475 µM
TGI (OVCAR-3 ovarian): 19.5 µM
TGI (OVCAR-4 ovarian): 42.9 µM
TGI (OVCAR-5 ovarian): 98.9 µM
TGI (OVCAR-8 ovarian): 11.8 µM
TGI (PC-3 prostate): > 100 µM
TGI (RPMI-8226 leukemia): 3.85 µM
TGI (RXF 393 renal): 36.6 µM
TGI (SF-268 CNS): 13.1 µM
TGI (SF-295 CNS): 3.54 µM
TGI (SF-539 CNS): 6.6 µM
TGI (SK-MEL-2 melanoma): 30.2 µM
TGI (SK-MEL-28 melanoma): > 53 µM
TGI (SK-MEL-5 melanoma): 11.7 µM
TGI (SK-OV-3 ovarian): 10.1 µM
TGI (SN12C renal): > 100 µM
TGI (SNB-19 CNS): > 63.9 µM
TGI (SNB-75 CNS): 8.01 µM
TGI (SR leukemia): > 33.7 µM
TGI (SW-620 colon): 30.4 µM
TGI (U251 CNS): 17.1 µM
TGI (UACC-257 melanoma): 17.4 µM
TGI (UACC-62 melanoma): 6.44 µM
TGI (UO-31 renal): 0.629 µM
